# Publication PMC9607427, “Novel 7-Chloro-(4-thioalkylquinoline) Derivatives: Synthesis and Antiproliferative Activity through Inducing Apoptosis and DNA/RNA Damage” (Pharmaceuticals, 2022)
# pIC50: −log10 of the molar value.
# Columns and labels:
# [1] = tested on: BJ (noncancerous human fibroblasts from foreskin); assay: Cytotoxic MTS assay, BJ; assay type: cell-based
# Method in brief: (§1)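 IC50 values derive from MTS metabolic staining after 3 days of compound exposure, at least three biological replicates in technical duplicate; SD typically up to 20% of the mean.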
# CCRF-CEM lymphoblasts = assay: BrDU incorporation analysis (DNA synthesis); assay type: cell-based, human; conditions: 24 h, 5 × IC50 (second value of cell)
# Experimental: The effect of compounds on cell cycle distribution was determined to gain insights into the mechanism of its antiproliferative activity. […] For example, as compared with control, the percentage of cells in G2/M phases was increased by treatment with 5 × IC50 μM of compounds for 24 h (Table 4). […] As shown in (Table 4), there was a marked increase in the sub-G1 from 2.91 in untreated cells. 5-Bromo-2-deoxyuridine (BrDU) is incorporated into newly synthesized DNA, and 5-bromouridine (BrU) pulse labeling is therefore commonly used as a proliferation marker. Low BrDU and BrU incorporation into the DNA or RNA, respectively, of treated cells with all compounds at 5 × IC50 reflected inhibition of DNA and RNA synthesis, indicating irreversible apoptotic changes. The percentage of […] cells incorporating 5-bromouridine is proportional to the transcriptional activity of CCRF-CEM cells. Cells were cultivated and processed as described in the previous method. Before harvesting, BrDU 10 µM was added to the cells for pulse-labeling for 30 min. Then, cells were washed by PBS and fixed with −20 °C cold 70% ethanol and stored in a freezer overnight. Before analysis, the samples were incubated on ice for 30 min, washed once with PBS, and re-suspended in 2 M HCl for 30 min at rt to denature their DNA. Following neutralization with a 0.1 M Na2B4O7 (borax) solution, the cells were washed with PBS containing 0.5% Tween-20 and 1% BSA. Next, staining with primary anti-BrDU antibody (Exbio) was performed for 30 min at rt in the dark. Cells were then washed with PBS and stained with secondary anti-mouse-FITC antibody (Sigma) at rt in the dark. After another wash with PBS and incubation with propidium iodide (0.1 mg × mL^−1) and RNase A (0.5 mg × mL^−1) for 1 h at rt in the dark, cells were analyzed by flow cytometry using a 488 nm single beam laser (FACSCalibur, Becton Dickinson, Franklin Lakes, NJ, USA).
# [2] = tested on: K562 (chronic myeloid leukemia); assay: Cytotoxic MTS assay, K562; assay type: cell-based, human
# Method in brief: (§2)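 Read-out was MTS absorbance at 490 nm, converted to tumor cell survival and fitted for the concentration inhibiting growth by 50%. Cells had been incubated with compound for 72 h in DMEM/RPMI 1640 with 10% fetal calf serum.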
# [3] = tested on: MRC-5 (noncancerous human lung fibroblasts); assay: Cytotoxic MTS assay, MRC-5; assay type: cell-based
# Method in brief: as §1
# [4] = tested on: BJLD (human lung fibroblast doxorubicin-resistant); assay: Cytotoxic MTS assay, BJLD; assay type: cell-based
# Method in brief: as §2
# [5] = tested on: HCT116p53−/− (HCT116 with deleted p53 gene); assay: Cytotoxic MTS assay, HCT116p53−/−; assay type: cell-based, human
# Method in brief: as §2
# [6] = tested on: A549 (lung adenocarcinoma); assay: Cytotoxic MTS assay, A549; assay type: cell-based, human
# Method in brief: as §2
# [7] = tested on: MRC-5LD (noncancerous human lung fibroblasts doxorubicin-resistant); assay: Cytotoxic MTS assay, MRC-5LD; assay type: cell-based
# Method in brief: as §1
# [8] = tested on: CEM-DNR bulk (daunorubicin-resistant subline of CCRF-CEM cells); assay: Cytotoxic MTS assay, CEM-DNR; assay type: cell-based, human
# Method in brief: as §2
# U2OS (osteosarcoma) = assay: Cytotoxic MTS assay, U2OS; assay type: cell-based, human
# Method in brief: as §2
# [9] = tested on: K562-TAX (chronic myeloid leukemia paclitaxel-resistant subline); assay: Cytotoxic MTS assay, K562-TAX; assay type: cell-based, human
# Method in brief: as §2
Structure (SMILES),pIC50 [1],DNA Synthesis (% positive of cells) (CCRF-CEM lymphoblasts) [%],pIC50 [2],pIC50 [3],pIC50 [4],pIC50 [5],pIC50 [6],pIC50 [7],pIC50 [8],pIC50 (U2OS (osteosarcoma)),pIC50 [9]
"COc1ccc(C(=O)OCCS(=O)(=O)c2cc[n+]([O-])c3cc(Cl)ccc23)cc1[N+](=O)[O-] [Compound 69, 2-[(N-Oxide 7-chloroquinolin-4-yl)sulfonyl]ethyl-4-methoxy-3-nitrobenzoate]",4.57,4.22,5.19,5.08,4.71,4.95,4.55,5.56,4.72,4.99,5.14
"COc1ccccc1C(=O)OCCS(=O)(=O)c1cc[n+]([O-])c2cc(Cl)ccc12 [Compound 68, 2-[(N-Oxide 7-chloroquinolin-4-yl)sulfonyl]ethyl-2-methoxybenzoate]",4.61,7.18,5.33,5.31,5.00,5.08,4.57,5.38,4.91,5.16,5.33
"O=C(OCCS(=O)(=O)c1cc[n+]([O-])c2cc(Cl)ccc12)c1ccc(C(F)(F)F)cc1 [Compound 72, 2-[(N-Oxide 7-chloroquinolin-4-yl)sulfonyl]ethyl-4-(trifluoromethyl)benzoate]",4.54,4.35,5.52,4.61,4.57,4.78,4.55,4.86,4.60,4.74,5.22
"COc1cc(OC)c(C(=O)OCCS(=O)(=O)c2cc[n+]([O-])c3cc(Cl)ccc23)cc1OC [Compound 66, 2-[(N-Oxide 7-chloroquinolin-4-yl)sulfonyl]ethyl-2,4,5-trimethoxybenzoate]",4.67,9.68,5.28,5.29,4.96,5.10,4.55,5.64,5.10,5.08,5.20
"COc1ccc(OC)c(C(=O)OCCS(=O)(=O)c2cc[n+]([O-])c3cc(Cl)ccc23)c1 [Compound 65, 2-[(N-Oxide 7-chloroquinolin-4-yl)sulfonyl]ethyl-2,5-dimethoxybenzoate]",4.65,19.73,5.23,5.31,5.01,5.08,4.55,5.69,5.05,5.12,5.18
"Cc1ccc([N+](=O)[O-])c(C(=O)OCCS(=O)(=O)c2cc[n+]([O-])c3cc(Cl)ccc23)c1 [Compound 70, 2-[(N-Oxide 7-chloroquinolin-4-yl)sulfonyl]ethyl-5-methyl-2-nitrobenzoate]",4.59,4.88,5.21,4.64,< 4.30,5.06,4.55,5.19,4.76,5.00,5.16
"COc1ccc(C(=O)OCCS(=O)(=O)c2cc[n+]([O-])c3cc(Cl)ccc23)cc1 [Compound 63, 2-[(N-Oxide 7-chloroquinolin-4-yl)sulfonyl]ethyl-4-methoxybenzoate]",4.62,13.54,5.27,5.40,4.92,4.79,4.54,5.54,5.06,5.24,5.33
